Measured values published in PMC11831560, “Development of the Pyrido[2,3-d]pyrimidin-7(8H)-one Scaffold toward Potent and Selective NUAK1 Inhibitors” (ACS Medicinal Chemistry Letters, 2025).
Several values for one entry are separate records, joined by “and”; a condition that tells them apart may be missing. Equal entries are not always repeated.

Key:
[1] = biological target: T1, NUAK1 (Homo sapiens, UniProt O60285); test: NanoBRET target engagement assay, HEK293 cells; conditions: cell-based NanoBRET target engagement assay
T1 sequence (O60285 1-661): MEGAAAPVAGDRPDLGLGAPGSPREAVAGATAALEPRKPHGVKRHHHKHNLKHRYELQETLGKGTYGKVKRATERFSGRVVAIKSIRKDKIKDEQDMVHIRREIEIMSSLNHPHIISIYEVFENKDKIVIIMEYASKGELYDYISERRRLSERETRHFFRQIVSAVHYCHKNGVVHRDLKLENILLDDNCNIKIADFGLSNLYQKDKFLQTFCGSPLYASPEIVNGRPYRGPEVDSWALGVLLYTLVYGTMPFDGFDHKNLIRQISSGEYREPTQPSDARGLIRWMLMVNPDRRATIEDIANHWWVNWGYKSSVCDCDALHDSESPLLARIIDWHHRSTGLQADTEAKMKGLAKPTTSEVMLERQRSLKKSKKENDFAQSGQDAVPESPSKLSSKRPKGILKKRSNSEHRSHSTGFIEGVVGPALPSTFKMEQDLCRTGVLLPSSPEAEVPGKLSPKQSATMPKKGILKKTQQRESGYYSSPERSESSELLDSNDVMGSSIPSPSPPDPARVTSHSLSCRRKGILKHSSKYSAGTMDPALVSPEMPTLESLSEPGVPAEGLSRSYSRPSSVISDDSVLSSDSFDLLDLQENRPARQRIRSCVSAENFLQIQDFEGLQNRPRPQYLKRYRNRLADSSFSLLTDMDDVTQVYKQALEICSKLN
Procedure: NanoBRET® target engagement assay
The binding of compounds to NUAK1 in intact cells was assessed using an NanoBRET® TE Intracellular Kinase Assay (Promega N2501). HEK293 cells transiently transfected with NanoLuc®- NUAK1 Fusion Vector (Promega NV1831) were incubated with 10 nL K5 tracer (provided in the kit, Promega N2501) and 40 nL of the test compounds in 100% DMSO in a white low volume non-binding 384 assay plate (Grenier Bio One 784904) for 90 min at 37 °C. After incubation, followed by cooling for 15 min at room temperature, 4 µL of the Intracellular TE Nano-Glo ® Substrate/Inhibitor (Promega N2160) was added to each well. The plate was read using a Pherastar FSX plate reader (BMG Labtech).
Minimum number of 2 technical replicates per compound.
(§1) Activity pIC50 values and standard error of the mean (SEM) were estimated using a 4-parameter fit (Dotmatics). The SEM for all reported data was 0.2 or lower. See Experimental Procedures for minimum number of replicates per compound. Each experiment included a Standard compound whose pIC50 value was compared to a quality control chart. If the Standard pIC50 value fell outside the range of pIC50 +/-3 standard deviation, then the experiment was invalidated. […]

[2] = biological target: T2, MARK3 (Homo sapiens, UniProt P27448); test: ADP-Glo biochemical assay MARK3; conditions: for MARK3 pIC50 / IC50: ADP-Glo assay; for IC50: read-out: MARK3 pIC50 (converted)
T2 construct: purchased MRC PPU
Procedure: (§2) Biological experimental procedures
(§3) ADP-Glo biochemical assays
(§4) Protein kinase activity in the presence of inhibitor compounds was determined by ADP-Glo assay (Promega), as previously described.1,2 Compounds were serialised using a Labcyte Echo 520 and transferred to 384 well plates (Greiner 784201) followed by the addition 5 µL of substrate containing peptide and ATP at Km in buffer (see Table S6). 5 µL of purified protein was added and the plate was incubated for 60 minutes at room temperature (ng/well; see Table S6). 3 µL of assay mixture was transferred using an Integra Viaflo384 into a white low volume plate (Greiner 781904) prior to the addition of 3 µL of ADP-Glo Reagent™ for a further 40 minute incubation. After incubation with 6 µL of Kinase Detection Reagent for 30 minutes, plate luminescence was read (Pherastar FSX, BMG […]
(§5) 30 mM HEPES pH7.4, 3 mM MgCl2, 3 mM MnCl2, 1.2 mM DTT, 0.01% CHAPS
(§6) Table S6: Conditions for protein kinase ADP-Glo assays
(§7) ATP AT Peptide Peptide Enzyme Enzyme Assay Buffe Min.
(§8) Protein conc. P Peptide name conc. supplier amount supplier vol. r na […]
(§9) NUAK1 µM µM Sakamototide 50 µM Merck 6.7 ng PPU 10 µl A 6
(§10) A µM µM Sakamototide 100 µM Merck 1 ng PPU 10 µl B 2 […]
(§11) aMin. n: Minimum number of technical replicates per compound

[3] = biological target: T3, MARK1 (Homo sapiens, UniProt Q9P0L2); test: ADP-Glo biochemical assay MARK1; conditions: for IC50 / MARK1 pIC50: ADP-Glo assay; for IC50: read-out: MARK1 pIC50 (converted)
T3 construct: purchased MRC PPU
Procedure: as §2, §3, §4, §5, §6, §7, §8, §9, §10, §11

[4] = biological target: T4, MARK2 (Homo sapiens, UniProt Q7KZI7); test: ADP-Glo biochemical assay MARK2; conditions: for IC50 / MARK2 pIC50: ADP-Glo assay; for IC50: read-out: MARK2 pIC50 (converted)
T4 construct: purchased MRC PPU
Procedure: as §2, §3, §4, §5, §6, §7, §8, §9, §10, §11

[5] = Microsomal stability, mouse; assay type: in vitro ADME; conditions: mouse liver microsomes; read-out: MLM t1/2
Procedure: All single point assay determinations carried out in duplicate.
ADMET and PK experimental methods
Microsomal stability: analysis was performed by Cyprotex Discovery. […]

[6] = biological target: T1, NUAK1; test: ADP-Glo biochemical assay NUAK1; parameters: purchased MRC PPU; conditions: for NUAK1 pIC50 / IC50: ADP-Glo assay; for IC50: read-out: NUAK1 pIC50 (converted)
Procedure: as §2, §3, §4, §5, §6, §7, §8, §9, §10, §11

[7] = biological target: T5, CDK4/Cyclin D1 (Homo sapiens, UniProt P11802); test: Adapta screening assay (Thermo Fisher); assay type: biochemical; conditions: single point at 1 μM; read-out: CDK4 % Inh.
T5 construct: purchased Thermo Fisher Scientific
Source text: as §1
(§12) CDK4/cyclin D1: Adapta™ screening assay was performed by Thermo Fisher Scientific. The 2X CDK4/cyclin D1 / Rb Substrate mixture is prepared in 50 mM HEPES pH 7.5, 0.01% BRIJ-35, 10 mM MnCl2, 1 mM EGTA, 2 mM DTT, 0.02% NaN3. The final 10 µL Kinase Reaction consists of 7.5 - 30 ng CDK4/cyclin D1 and 1 µM Rb Substrate in 32.5 mM HEPES pH 7.5, 0.005% BRIJ-35, 5 mM MnCl2, […]
0.5 mM EGTA, 1 mM DTT, 0.01% NaN3. […]

[8] = biological target: T6, CDK6/Cyclin D1 (Homo sapiens, UniProt Q00534); test: Adapta screening assay (Thermo Fisher); assay type: biochemical; conditions: single point at 1 μM; read-out: CDK6 % Inh.
T6 construct: purchased Thermo Fisher Scientific
Source text: as §1
as §12, with “CDK6/cyclin D1:” for “CDK4/cyclin D1:”, “2X CDK6/cyclin” for “2X CDK4/cyclin”, “of 1.75” for “of 7.5”, “- 7” for “- 30”, “ng CDK6/cyclin” for “ng CDK4/cyclin”
All single point assay determinations carried out in duplicate. […]

T6 sequence (Q00534 whole entry): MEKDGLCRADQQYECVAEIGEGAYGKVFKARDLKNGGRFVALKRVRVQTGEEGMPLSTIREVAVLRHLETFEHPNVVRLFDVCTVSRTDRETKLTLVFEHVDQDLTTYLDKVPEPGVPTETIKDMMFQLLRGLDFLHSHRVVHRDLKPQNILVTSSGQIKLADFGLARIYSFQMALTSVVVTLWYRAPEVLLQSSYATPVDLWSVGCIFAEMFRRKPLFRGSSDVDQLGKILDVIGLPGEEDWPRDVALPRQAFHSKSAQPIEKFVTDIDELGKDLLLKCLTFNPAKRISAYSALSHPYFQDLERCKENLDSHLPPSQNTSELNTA
T6 sequence (P24385 whole entry partner): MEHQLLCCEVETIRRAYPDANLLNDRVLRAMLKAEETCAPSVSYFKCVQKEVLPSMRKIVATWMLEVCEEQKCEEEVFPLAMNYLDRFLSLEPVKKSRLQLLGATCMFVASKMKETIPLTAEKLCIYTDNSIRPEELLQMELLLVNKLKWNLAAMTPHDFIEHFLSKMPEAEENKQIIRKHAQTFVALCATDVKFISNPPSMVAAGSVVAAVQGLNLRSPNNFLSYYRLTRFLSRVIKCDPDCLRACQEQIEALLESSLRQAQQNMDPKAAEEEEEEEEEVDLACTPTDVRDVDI
T3 sequence (Q9P0L2 whole entry): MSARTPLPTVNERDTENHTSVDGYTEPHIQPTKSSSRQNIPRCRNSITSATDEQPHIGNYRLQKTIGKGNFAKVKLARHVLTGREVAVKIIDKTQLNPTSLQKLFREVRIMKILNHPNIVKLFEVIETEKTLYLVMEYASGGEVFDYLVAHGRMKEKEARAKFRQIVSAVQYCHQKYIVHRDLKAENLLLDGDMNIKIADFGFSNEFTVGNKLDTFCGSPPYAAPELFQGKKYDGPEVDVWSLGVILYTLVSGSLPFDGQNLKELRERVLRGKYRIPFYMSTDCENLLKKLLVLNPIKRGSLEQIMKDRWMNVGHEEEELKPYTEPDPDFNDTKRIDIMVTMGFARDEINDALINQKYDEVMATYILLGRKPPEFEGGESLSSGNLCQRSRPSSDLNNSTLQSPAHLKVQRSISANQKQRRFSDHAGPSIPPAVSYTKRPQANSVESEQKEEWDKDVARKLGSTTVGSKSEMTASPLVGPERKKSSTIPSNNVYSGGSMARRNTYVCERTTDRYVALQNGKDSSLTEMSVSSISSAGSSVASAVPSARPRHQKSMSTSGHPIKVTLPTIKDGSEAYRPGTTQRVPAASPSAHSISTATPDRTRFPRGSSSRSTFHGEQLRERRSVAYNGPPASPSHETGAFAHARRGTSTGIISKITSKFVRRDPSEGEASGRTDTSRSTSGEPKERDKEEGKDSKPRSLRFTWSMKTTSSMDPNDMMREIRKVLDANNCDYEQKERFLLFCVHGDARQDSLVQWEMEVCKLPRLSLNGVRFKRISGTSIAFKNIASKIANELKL
T5 sequence (P11802 whole entry): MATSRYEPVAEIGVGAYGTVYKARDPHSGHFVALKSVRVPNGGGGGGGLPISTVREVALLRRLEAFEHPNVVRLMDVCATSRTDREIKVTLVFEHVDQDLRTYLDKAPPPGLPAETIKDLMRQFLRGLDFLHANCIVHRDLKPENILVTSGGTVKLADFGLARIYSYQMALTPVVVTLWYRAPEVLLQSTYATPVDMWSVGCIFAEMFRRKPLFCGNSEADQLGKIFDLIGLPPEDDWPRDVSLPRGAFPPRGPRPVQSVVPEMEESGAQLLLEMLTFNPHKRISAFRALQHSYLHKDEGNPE
T5 sequence (P24385 whole entry partner): as the sequence (P24385 whole entry partner) above
T2 sequence (P27448 whole entry): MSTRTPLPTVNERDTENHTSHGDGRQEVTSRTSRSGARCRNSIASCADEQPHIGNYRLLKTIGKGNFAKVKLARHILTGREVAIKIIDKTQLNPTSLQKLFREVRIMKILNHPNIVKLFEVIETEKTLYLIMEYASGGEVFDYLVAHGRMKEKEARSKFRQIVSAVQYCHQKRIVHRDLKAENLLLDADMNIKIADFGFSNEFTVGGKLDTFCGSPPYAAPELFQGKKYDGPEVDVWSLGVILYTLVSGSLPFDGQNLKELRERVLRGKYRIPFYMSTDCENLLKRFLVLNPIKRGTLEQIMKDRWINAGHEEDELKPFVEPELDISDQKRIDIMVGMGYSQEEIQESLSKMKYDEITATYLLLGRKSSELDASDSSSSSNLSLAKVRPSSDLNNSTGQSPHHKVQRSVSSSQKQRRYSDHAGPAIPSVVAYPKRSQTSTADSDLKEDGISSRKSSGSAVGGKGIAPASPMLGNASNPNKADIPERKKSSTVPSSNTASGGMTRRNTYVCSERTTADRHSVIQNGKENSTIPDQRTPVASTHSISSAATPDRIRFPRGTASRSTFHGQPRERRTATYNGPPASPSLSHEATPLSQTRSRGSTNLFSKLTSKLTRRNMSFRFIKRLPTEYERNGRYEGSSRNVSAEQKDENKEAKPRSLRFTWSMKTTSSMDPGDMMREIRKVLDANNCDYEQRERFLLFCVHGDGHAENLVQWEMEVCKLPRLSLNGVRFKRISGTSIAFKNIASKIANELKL
T4 sequence (Q7KZI7 whole entry): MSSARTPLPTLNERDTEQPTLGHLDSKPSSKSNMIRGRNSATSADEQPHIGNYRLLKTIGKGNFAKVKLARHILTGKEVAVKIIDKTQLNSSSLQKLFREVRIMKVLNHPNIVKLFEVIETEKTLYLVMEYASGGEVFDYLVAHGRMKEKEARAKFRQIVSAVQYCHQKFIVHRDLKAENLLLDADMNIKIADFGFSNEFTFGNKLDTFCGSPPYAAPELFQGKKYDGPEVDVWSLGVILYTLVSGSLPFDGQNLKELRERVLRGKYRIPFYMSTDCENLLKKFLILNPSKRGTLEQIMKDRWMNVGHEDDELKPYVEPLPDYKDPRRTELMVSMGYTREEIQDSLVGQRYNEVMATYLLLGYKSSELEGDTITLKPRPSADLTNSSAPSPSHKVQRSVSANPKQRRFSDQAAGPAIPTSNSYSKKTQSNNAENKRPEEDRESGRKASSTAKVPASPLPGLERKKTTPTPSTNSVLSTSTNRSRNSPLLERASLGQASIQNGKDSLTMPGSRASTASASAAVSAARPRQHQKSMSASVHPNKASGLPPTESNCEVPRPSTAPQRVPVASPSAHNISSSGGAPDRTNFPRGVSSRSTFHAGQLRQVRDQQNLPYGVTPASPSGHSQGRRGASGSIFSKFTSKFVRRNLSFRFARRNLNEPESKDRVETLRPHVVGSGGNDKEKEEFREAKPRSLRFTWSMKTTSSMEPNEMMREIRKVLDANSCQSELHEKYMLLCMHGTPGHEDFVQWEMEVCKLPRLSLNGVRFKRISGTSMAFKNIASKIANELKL

| SMILES | NUAK1 cell TE pIC50 [1] | MARK3 pIC50 [2] | MARK3 Fold selectivity IC50/NUAK1 IC50 [2] | IC50 [3] | MARK1 Fold selectivity IC50/NUAK1 IC50 [3] | IC50 [4] | MARK2 Fold selectivity IC50/NUAK1 IC50 [4] | half-life at 1 µM [5] | NUAK1 pIC50 [6] | IC50 [6] | inhibition at 1 µM [7] | inhibition at 1 µM [8] | half-life at 0.75 h, 1 µM [5] | IC50 [2] | MARK1 pIC50 [3] | MARK2 pIC50 [4] | ligand efficiency [6] |
| --- | --- | --- | --- | --- | --- | --- | --- | --- | --- | --- | --- | --- | --- | --- | --- | --- | --- |
| CN1C2CC1CN(c1ccc(Nc3ncc4ccn(CC5CCCO5)c4n3)cc1)C2 (stereo not drawn) [Compound 28] | 6.7 | 5.68 and 5.7 | 380 fold | 4.27 µM | 776 fold | 5.75 µM | 1047 fold | 17 min | 8.3 | 5.5 nM |  |  |  |  |  |  |  |
| Cc1cc(=O)n(C(C)C)c2nc(Nc3ccc(N4CC5CC(C4)N5C)cc3)ncc12 [Compound 20] | 6.0 | 6.0 | 47 fold |  |  |  |  |  | 7.68 and 7.7 |  | 46% | 39% | 79.9 min |  |  |  |  |
| CC(C)N1CCN(c2ccc(Nc3ncc4ccn(CC5CCCO5)c4n3)cc2)CC1 (stereo not drawn) [Compound 27] | 6.9 | 6.2 | 200 fold and 201 fold | 1.23 µM | 363 fold | 2.04 µM | 603 fold | 8.4 min | 8.5 | 3.39 nM |  |  |  | 676 nM |  |  |  |
| Cc1cc(=O)n(C2CCCC2)c2nc(Nc3ccc(N4CC5CC(C4)N5C)cc3)ncc12 [Compound 9] | 6.5 | 6.2 | 112 fold |  |  |  |  |  | 8.3 | 5.5 nM | 91% | 67% | 20.9 min |  |  |  |  |
| CN1CCN(c2ccc(Nc3ncc4cc(C#N)c(=O)n(C5CCCC5)c4n3)cc2)CC1 [Compound 3, Narazaciclib, reference compound] |  | 5.8 | 56 fold | 5.89 µM | 224 fold |  | 603 fold | 8 min | 7.58 |  |  |  | 8.4 min | 1480 nM | 5.2 | 4.8 | 0.33 |
| CC(C)N1CCN(c2ccc(Nc3ncc4ccn(CC5CCOC(C)(C)C5)c4n3)cc2)CC1 (stereo not drawn) [Compound 26] | 6.8 | 5.2 |  | 10.7 µM | 3890 fold | 11.2 µM | 4074 fold | 14.8 min | 8.6 | 2.75 nM |  |  |  |  |  |  |  |
| CN1C2CC1CN(c1ccc(Nc3ncc4cc(C#N)c(=O)n(C5CCCC5)c4n3)cc1)C2 [Compound 10] | 6.2 | 5.9 | 83 fold |  |  |  |  |  | 7.8 | 14.8 nM | 98% | 96% | 33.1 min |  |  |  |  |
| CC(C)N1CCN(c2ccc(Nc3ncc4c(n3)N(C3CCCC3)C(=O)C4)cc2)CC1 [Compound 7] | 6.6 | 6.02 and 6.0 | 229 fold | 2.95 µM | 708 fold | 4.47 µM | 1072 fold |  | 8.38 and 8.4 |  | 75% | 59% | 9.5 min |  | 5.5 | 5.4 | 0.38 |
| CC(C)N1CCN(c2ccc(Nc3ncc4ccn(C5CCCC5)c4n3)cc2)CC1 [Compound 8] | 6.8 | 6.2 | 138 fold | 1.45 µM | 316 fold |  | 417 fold |  | 8.3 | 4.57 nM | 90% | 79% | 15.1 min |  | 5.8 | 5.72 and 5.7 | 0.39 |
| Cc1cc(=O)n(C2CCCC2)c2nc(Nc3ccc(N4CCN(C)CC4)cc3)ncc12 [Compound 4] | 6.9 | 6.4 | 95 fold and 96 fold | 2.95 µM | 646 fold | 3.39 µM | 741 fold |  | 8.3 | 4.57 nM | 98% | 87% | 6.2 min | 437 nM | 5.5 | 5.5 |  |
| CN1C2CC1CN(c1ccc(Nc3ncc4ccn(CC5CCOCC5)c4n3)cc1)C2 [Compound 24] | 7.0 | 5.22 and 5.2 | 1905 fold | 8.91 µM | 2818 fold |  | 4898 fold |  | 8.5 |  | 29% | 11% | 21.4 min |  | 5.1 | 4.81 and 4.8 |  |
